According to patent US11230593B2, “Compositions and methods for treating and preventing influenza” (VISTERRA, INC., priority 2019, dated 2022):
≈ marks a conversion by molar mass, not a printed value. Read-outs that look alike come from different tables or passages of the source.

Legend:
Format in all cases: cell-based, Influenza A
[1] = test system: Mississippi/3/2001 H275Y (H1N1)
[2] = test system: Hawaii/31/2007 H275Y (H1N1)
[3] = test system: Victoria/3/75-Os-R (H3N2); assay: microbe, parasite or virus in culture
[4] = test system: Pennsylvania/30/2009 H275Y, I223R (H1N1)
[5] = test system: Hong Kong/2369/2009 H275Y (H1N1)
WSN/33 H274Y (H1N1) = test system: WSN/33 H274Y (H1N1)

With `NC(=O)c1ncn([C@@H]2O[C@H](CO)[C@@H](O)[C@H]2O)n1` [Ribavirin, ribavirin] the EC50 [1] was 18 µg/mL (≈ 73.7 µM), the EC50 [2] was 7.2 µg/mL (≈ 29.5 µM) and the EC50 ([3]; Influenza A virus, H3N2, MDCK) was 5.4 µg/mL (≈ 22.1 µM). For the same molecule, the EC50 [4] was 5.2 µg/mL (≈ 21.3 µM), the EC50 [5] was 28 µg/mL (≈ 115 µM) and the EC50 (WSN/33 H274Y (H1N1)) was 3.7 µg/mL (≈ 15.2 µM).

Oseltamivir acid [Oseltamivir (OSE)] gave an EC50 [1] of over 50 µg/mL, an SI [1] of 0 and an EC50 [2] of over 21 µg/mL. The SI [2] was under 2.4, the EC50 [3] was over 50 µg/mL and the SI [3] was 0. The EC50 [4] was over 50 µg/mL, the SI [4] was 0 and the SI [5] was under 6.4. It also gave an EC50 (WSN/33 H274Y (H1N1)) of 28 µg/mL and an SI (WSN/33 H274Y (H1N1)) of over 1.8.
